{
  "source": "patent US11596639B2",
  "about": "“Substituted indole Mcl-1 inhibitors” (Vanderbilt University, priority 2016, dated 2023)",
  "key": {"Mcl-1": {"target": "Mcl-1 (Homo sapiens (Human), UniProt Q07820)", "sequence (Q07820 172-327)": "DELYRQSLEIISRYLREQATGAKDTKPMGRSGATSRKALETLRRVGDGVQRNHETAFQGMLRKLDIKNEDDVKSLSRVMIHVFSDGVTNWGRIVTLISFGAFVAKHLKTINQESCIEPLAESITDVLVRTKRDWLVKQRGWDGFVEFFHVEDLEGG", "assay": "Fluorescence polarization anisotropy (FPA) competition assay, FITC-Bak or FITC-Bim BH3 peptide", "type": "binding", "settings": "read-out: Ki for Inhibition of Mcl-1 by FPA assay"}, "[1]": {"tested_on": "H929 human cancer cell lines", "assay": "Cellular viability / proliferation (Cell TiterGlo, 72 h)", "type": "cell-based", "procedure,_shortened": "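Compounds were added as 2-fold serial dilutions from 50 μM (final DMSO <1%) to H929 cells seeded 1,000 per well in 10% FBS medium one day earlier.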"}, "[2]": {"settings": "Homo sapiens, NCI-H929, 72 h, read-out: GI50 on cellular proliferation of H929 human cancer cell lines, H929 cells, 72 h, Cell TiterGlo, 10% FBS"}, "[3]": {"settings": "H929 cells, 72 h, Cell TiterGlo, 10% FBS, read-out: GI50 on cellular proliferation of H929 human cancer cell lines"}},
  "note": "Read-outs that look alike come from different tables or passages of the source.",
  "data": [
    {"smiles": "Cc1cc(OCCCc2c3n(c4c(-c5c(C)nn(C)c5C)c(Cl)ccc24)[C@H](C)CN(c2cn(C)c4ccc(C(=O)NO)cc24)C3=O)cc(C)c1Cl", "note": "[Example 361, (R)-3-(7-Chloro-10-(3-(4-chloro-3,5-dimethylphenoxy)propyl)-4-methyl-1-oxo-6-(1,3,5-trimethyl-1H-pyrazol-4-yl)-3,4-dihydropyrazino[1,2-a]indol-2(1H)-yl)-N-hydroxy-1-methyl-1H-indole-5-carboxamide]", "values": [
      {"measurement": "Ki", "setting": "Mcl-1", "value": 2, "unit": "nM"},
      {"measurement": "GI50", "setting": "[1]; [2]", "value": 290, "unit": "nM"}
    ]},
    {"smiles": "Cc1cc(OCCCc2c3n(c4c(-c5c(C)nn(C)c5C)c(Cl)ccc24)[C@H](C)CN(c2cccc4cc(C(=O)O)n(C(C)c5ccccn5)c24)C3=O)cc(C)c1Cl", "note": "(stereo partly drawn) [Example 386, 7-((R)-7-Chloro-10-(3-(4-chloro-3,5-dimethylphenoxy)propyl)-4-methyl-1-oxo-6-(1,3,5-trimethyl-1H-pyrazol-4-yl)-3,4-dihydropyrazino[1,2-a]indol-2(1H)-yl)-1-(1-(pyridin-2-yl)ethyl)-1H-indole-2-carboxylic acid]", "values": [
      {"measurement": "Ki", "setting": "Mcl-1", "value": 3.2, "unit": "nM"},
      {"measurement": "GI50", "setting": "[1]; [2]", "value": 3100, "unit": "nM"}
    ]},
    {"smiles": "Cc1cc(OCCCc2c3n(c4c(-c5c(C)nn(C)c5C)c(Cl)ccc24)[C@H](C)CN(c2ccc(F)c4c(C(=O)O)cn(C)c24)C3=O)cc(C)c1Cl", "note": "[Example 447, (R)-7-(7-Chloro-10-(3-(4-chloro-3,5-dimethylphenoxy)propyl)-4-methyl-1-oxo-6-(1,3,5-trimethyl-1H-pyrazol-4-yl)-3,4-dihydropyrazino[1,2-a]indol-2(1H)-yl)-4-fluoro-1-methyl-1H-indole-3-carboxylic acid]", "values": [
      {"measurement": "Ki", "setting": "Mcl-1", "value": "< 1", "unit": "nM"},
      {"measurement": "GI50", "setting": "[1]; [2]", "value": 340, "unit": "nM"}
    ]},
    {"smiles": "Cc1cc(OCCCc2c3n(c4c(-c5c(C)nn(C)c5C)c(Cl)ccc24)[C@H](C)CN(c2cn(C)c4ccc(-c5nnnn5C)cc24)C3=O)cc(C)c1Cl", "note": "[Example 358, (R)-7-Chloro-10-(3-(4-chloro-3,5-dimethylphenoxy)propyl)-4-methyl-2-(1-methyl-5-(1-methyl-1H-tetrazol-5-yl)-1H-indol-3-yl)-6-(1,3,5-trimethyl-1H-pyrazol-4-yl)-3,4-dihydropyrazino[1,2-a]indol-1(2H)-one]", "values": [
      {"measurement": "Ki", "setting": "Mcl-1", "value": 4.2, "unit": "nM"},
      {"measurement": "GI50", "setting": "[1]; [2]", "value": 2300, "unit": "nM"}
    ]},
    {"smiles": "CC[C@@H]1Cn2c(c(CCCOc3cc(C)c(Cl)c(C)c3)c3ccc(Cl)c(-c4c(C)nn(C)c4C)c32)C(=O)N1c1cc(C(=O)O)c2c(ccn2C)c1", "note": "[Example 41, (R)-5-(7-chloro-10-(3-(4-chloro-3,5-dimethylphenoxy)propyl)-3-ethyl-1-oxo-6-(1,3,5-trimethyl-1H-pyrazol-4-yl)-3,4-dihydropyrazino[1,2-a]indol-2(1H)-yl)-1-methyl-1H-indole-7-carboxylic acid]", "values": [
      {"measurement": "Ki", "setting": "Mcl-1", "value": 1.8, "unit": "nM"},
      {"measurement": "GI50", "setting": "[1]; [2]", "value": 1200, "unit": "nM"}
    ]},
    {"smiles": "Cc1cc(OCCCc2c3n(c4c(-c5c(C)nn(C)c5C)c(Cl)ccc24)[C@H](C)CN(c2cccc4c(C(=O)O)cn(C)c24)C3=O)cc(C)c1Cl", "note": "[Example 215, (R)-7-(7-chloro-10-(3-(4-chloro-3,5-dimethylphenoxy)propyl)-4-methyl-1-oxo-6-(1,3,5-trimethyl-1H-pyrazol-4-yl)-3,4-dihydropyrazino[1,2-a]indol-2(1H)-yl)-1-methyl-1H-indole-3-carboxylic acid]", "values": [
      {"measurement": "Ki", "setting": "Mcl-1", "value": "< 1", "unit": "nM"},
      {"measurement": "GI50", "setting": "[1]; read-out: GI50 on cellular proliferation of H929 human cancer cell lines, H929 cells, 72 h, Cell TiterGlo, 10% FBS", "value": 430, "unit": "nM"}
    ]},
    {"smiles": "Cc1cc(OCCCc2c3n(c4c(-c5c(C)nn(C)c5C)c(Cl)ccc24)CCCN(c2cc(C(=O)O)cc4nn(C)cc24)C3=O)cc(C)c1Cl", "note": "[Example 36, 4-[8-Chloro-11-[3-(4-chloro-3,5-dimethyl-phenoxy)propyl]-1-oxo-7-(1,3,5-trimethylpyrazol-4-yl)-4,5-dihydro-3H-[1,4]diazepino[1,2-a]indol-2-yl]-2-methyl-indazole-6-carboxylic acid]", "values": [
      {"measurement": "Ki", "setting": "Mcl-1", "value": "< 1", "unit": "nM"},
      {"measurement": "GI50", "setting": "[1]; [2]", "value": 2600, "unit": "nM"}
    ]},
    {"smiles": "Cc1cc(OCCCc2c3n(c4c(-c5c(C)nn(C)c5C)c(Cl)ccc24)[C@H](C)CN(c2cc(C(C)C)cc4cc(C(=O)O)n(C)c24)C3=O)cc(C)c1Cl", "note": "[Example 356, (R)-7-(7-Chloro-10-(3-(4-chloro-3,5-dimethylphenoxy)propyl)-4-methyl-1-oxo-6-(1,3,5-trimethyl-1H-pyrazol-4-yl)-3,4-dihydropyrazino[1,2-a]indol-2(1H)-yl)-5-isopropyl-1-methyl-1H-indole-2-carboxylic acid]", "values": [
      {"measurement": "Ki", "setting": "Mcl-1", "value": 1.9, "unit": "nM"},
      {"measurement": "GI50", "setting": "[1]; [2]", "value": 650, "unit": "nM"}
    ]},
    {"smiles": "Cc1cc(OCCCc2c3n(c4c(-c5c(C)nn(C)c5C)c(Cl)ccc24)[C@H](C)CN(c2cc(OCc4ccccc4)cc4c2cc(C(=O)O)n4C)C3=O)cc(C)c1Cl", "note": "[Example 310, (M, R)-6-(benzyloxy)-4-(7-chloro-10-(3-(4-chloro-3,5-dimethylphenoxy)propyl)-4-methyl-1-oxo-6-(1,3,5-trimethyl-1H-pyrazol-4-yl)-3,4-dihydropyrazino[1,2-a]indol-2(1H)-yl)-1-methyl-1H-indole-2-carboxylic acid]", "values": [
      {"measurement": "Ki", "setting": "Mcl-1", "value": 1.5, "unit": "nM"},
      {"measurement": "GI50", "setting": "[1]; [3]", "value": 8900, "unit": "nM"}
    ]},
    {"smiles": "Cc1cc(OCCCc2c3n(c4c(-c5c(C)nn(C)c5C)c(Cl)ccc24)[C@H](C)CN(c2cn(C)c4ccc(S(=O)(=O)N5CCN(C)CC5)cc24)C3=O)cc(C)c1Cl", "note": "[Example 274, (R)-7-chloro-10-(3-(4-chloro-3,5-dimethylphenoxy)propyl)-4-methyl-2-(1-methyl-5-((4-methylpiperazin-1-yl)sulfonyl)-1H-indol-3-yl)-6-(1,3,5-trimethyl-1H-pyrazol-4-yl)-3,4-dihydropyrazino[1,2-a]indol-1(2H)-one]", "values": [
      {"measurement": "Ki", "setting": "Mcl-1", "value": 4.8, "unit": "nM"},
      {"measurement": "GI50", "setting": "[1]; [2]", "value": 2200, "unit": "nM"}
    ]},
    {"smiles": "Cc1cc(OCCCc2c3n(c4c(-c5c(C)nn(C)c5C)c(Cl)ccc24)[C@H](C)CN(c2cn(C)c4ccc(-c5ncn(C)n5)cc24)C3=O)cc(C)c1Cl", "note": "[Example 403, (R)-7-Chloro-10-(3-(4-chloro-3,5-dimethylphenoxy)propyl)-4-methyl-2-(1-methyl-5-(1-methyl-1H-1,2,4-triazol-3-yl)-1H-indol-3-yl)-6-(1,3,5-trimethyl-1H-pyrazol-4-yl)-3,4-dihydropyrazino[1,2-a]indol-1(2H)-one]", "values": [
      {"measurement": "Ki", "setting": "Mcl-1", "value": 1.5, "unit": "nM"},
      {"measurement": "GI50", "setting": "[1]; [2]", "value": "< 200", "unit": "nM"}
    ]},
    {"smiles": "Cc1cc(OCCCc2c3n(c4c(-c5c(C)nn(C)c5C)c(Cl)ccc24)[C@H](C)CN(c2cccc4c2cc(-c2nn[nH]n2)n4C)C3=O)cc(C)c1Cl", "note": "[Example 307, (4R)-7-chloro-10-[3-(4-chloro-3,5-dimethyl-phenoxy)propyl]-4-methyl-2-[1-methyl-2-(2H-tetrazol-5-yl)indol-4-yl]-6-(1,3,5-trimethylpyrazol-4-yl)-3,4-dihydropyrazino[1,2-a]indol-1-one]", "values": [
      {"measurement": "Ki", "setting": "Mcl-1", "value": 1.3, "unit": "nM"},
      {"measurement": "GI50", "setting": "[1]; [2]", "value": 3500, "unit": "nM"}
    ]},
    {"smiles": "Cc1cc(OCCCc2c3n(c4c(-c5c(C)nc(CN6CCNCC6)nc5C)c(Cl)ccc24)[C@H](C)CN(c2cn(C)c4ccc(C(=O)O)cc24)C3=O)cc(C)c1Cl", "note": "[Example 441, (R)-3-(7-Chloro-10-(3-(4-chloro-3,5-dimethylphenoxy)propyl)-6-(4,6-dimethyl-2-(piperazin-1-ylmethyl)pyrimidin-5-yl)-4-methyl-1-oxo-3,4-dihydropyrazino[1,2-a]indol-2(1H)-yl)-1-methyl-1H-indole-5-carboxylic acid]", "values": [
      {"measurement": "Ki", "setting": "Mcl-1", "value": 7, "unit": "nM"},
      {"measurement": "GI50", "setting": "[1]; [2]", "value": 4600, "unit": "nM"}
    ]},
    {"smiles": "COCCn1c(C(=O)O)cc2cc(C)cc(N3C[C@@H](C)n4c(c(CCCOc5cc(C)c(Cl)c(C)c5)c5ccc(Cl)c(-c6c(C)nn(C)c6C)c54)C3=O)c21", "note": "[Example 470, (R)-7-(7-Chloro-10-(3-(4-chloro-3,5-dimethylphenoxy)propyl)-4-methyl-1-oxo-6-(1,3,5-trimethyl-1H-pyrazol-4-yl)-3,4-dihydropyrazino[1,2-a]indol-2(1H)-yl)-1-(2-methoxyethyl)-5-methyl-1H-indole-2-carboxylic acid]", "values": [
      {"measurement": "Ki", "setting": "Mcl-1", "value": "< 1", "unit": "nM"},
      {"measurement": "GI50", "setting": "[1]; [2]", "value": "< 200", "unit": "nM"}
    ]},
    {"smiles": "Cc1nn(C)c(C)c1-c1c(Cl)ccc2c(CCCOc3ccccc3)c3n(c12)[C@H](C)CN(c1cn(C)c2ccc(C(=O)O)cc12)C3=O", "note": "[Example 408, (R)-3-(7-Chloro-4-methyl-1-oxo-10-(3-phenoxypropyl)-6-(1,3,5-trimethyl-1H-pyrazol-4-yl)-3,4-dihydropyrazino[1,2-a]indol-2(1H)-yl)-1-methyl-1H-indole-5-carboxylic acid]", "values": [
      {"measurement": "Ki", "setting": "Mcl-1", "value": 2.2, "unit": "nM"},
      {"measurement": "GI50", "setting": "[1]; [2]", "value": 3200, "unit": "nM"}
    ]},
    {"smiles": "CCn1cc2cc(C(=O)O)cc(N3CCCn4c(c(CCCOc5cc(C)c(Cl)c(C)c5)c5ccc(Cl)c(-c6c(C)nn(C)c6C)c54)C3=O)c2n1", "note": "[Example 124, 7-(8-chloro-11-(3-(4-chloro-3,5-dimethylphenoxy)propyl)-1-oxo-7-(1,3,5-trimethyl-1H-pyrazol-4-yl)-4,5-dihydro-1H-[1,4]diazepino[1,2-a]indol-2(3H)-yl)-2-ethyl-2H-indazole-5-carboxylic acid]", "values": [
      {"measurement": "Ki", "setting": "Mcl-1", "value": "< 1", "unit": "nM"},
      {"measurement": "GI50", "setting": "[1]; [2]", "value": 1900, "unit": "nM"}
    ]},
    {"smiles": "Cc1cc(OCCCc2c3n(c4c(-c5c(C)nn(C)c5C)c(Cl)ccc24)[C@H](C)CN(c2cc(C(=O)O)c4cnn(C)c4c2)C3=O)cc(C)c1Cl", "note": "[Example 53, (R)-6-(7-chloro-10-(3-(4-chloro-3,5-dimethylphenoxy)propyl)-4-methyl-1-oxo-6-(1,3,5-trimethyl-1H-pyrazol-4-yl)-3,4-dihydropyrazino[1,2-a]indol-2(1H)-yl)-1-methyl-1H-indazole-4-carboxylic acid]", "values": [
      {"measurement": "Ki", "setting": "Mcl-1", "value": "< 1", "unit": "nM"},
      {"measurement": "GI50", "setting": "[1]; [2]", "value": 500, "unit": "nM"}
    ]},
    {"smiles": "Cc1cc(OCCCc2c3n(c4c(-c5c(C)nn(C)c5C)c(Cl)ccc24)[C@H](C)CN(c2cc(OCc4ccccc4)cc4cc(C(=O)O)n(C)c24)C3=O)cc(C)c1Cl", "note": "[Example 333, (M, R)-5-(Benzyloxy)-7-(7-chlor-10-(3-(4-chloro-3,5-dimethylphenoxy)propyl)-4 methyl-1-oxo-6-(1,3,5-trimethyl-1H-pyrazol-4-yl)-3,4-dihydropyrazino[1,2-a]indol-2(1H)-yl)-1-methyl-1H-indole-2-carboxylic acid]", "values": [
      {"measurement": "Ki", "setting": "Mcl-1", "value": 1.3, "unit": "nM"},
      {"measurement": "GI50", "setting": "[1]; [3]", "value": 1100, "unit": "nM"}
    ]}
  ]
}
